Assay results published in BigSolDB 2.1.

O=C(/C=C/C=C/c1ccc2c(c1)OCO2)N1CCCCC1
solubility (mole fraction)
Details	298.2 K	303.2 K	308.2 K	313.2 K	318.2 K
in DMSO	0.0287	0.0303	0.0321	0.0339	0.0359
in ethanol	0.00899	0.01	0.011	0.012	0.0134
in ethyl acetate	0.00985	0.011	0.0123	0.0137	0.0154
in ethylene glycol	0.00386	0.00444	0.00515	0.00597	0.0067
in isopropanol	0.0123	0.0136	0.0149	0.0164	0.0182
in methanol	0.00527	0.00584	0.00648	0.00719	0.00791
in n-butanol	0.0156	0.0169	0.0183	0.0201	0.022
in propylene glycol	0.01	0.0111	0.0122	0.0134	0.0147
in sec-butanol	0.0158	0.017	0.0187	0.0206	0.0225
in transcutol	0.0797	0.0826	0.0852	0.0883	0.0917
in water	1.07e-05	1.18e-05	1.29e-05	1.41e-05	1.52e-05

Details	solubility (mole fraction)
in PEG-400, 298.2 K	0.0518
in PEG-400, 303.2 K	0.0584
in PEG-400, 308.2 K	0.0652
in PEG-400, 313.2 K	0.0718
in PEG-400, 318.2 K	0.0788
